According to patent US20040209849A1, “Use of effectors of the central cholinergic nervous system for treatment of delirium” (priority 1998, published 2004):

System: non-anticholinergic delirium (lithium poisoning, severe hyperactive delirium)
Assay: Individual case: treatment of a non-anticholinergic (lithium poisoning) delirium with orally administered rivastigmine
Format: in vivo, human
Conditions: patient, after 48 hours of therapy at 2×1.5 mg
Description: Treatment of a non-anticholinergic delirium with an orally administered modern inhibitor of acetylcholine esterase, rivastigmine
A patient had suffered from manic-depressive disease. Until recently there were no mental disintegration phenomena. After a urinary tract infection with lithium therapy of the manic-depressive condition, lithium poisoning occurred with a severe hyperactive delirium which forced the patient to be admitted to a hospital on an in-patient ward. These lithium poisoning deliria generally subside completely only after 6-8 weeks. The patient was transferred to a private clinic after 4 days and was highly psychotic, urinated in the corner of the room, talked to the lamp on the night table, hallucinated strange individuals and dwarves in the room, repeatedly fled the ward, believed that the nursing personnel wanted to kill them, was extremely agitated in motor response and restless, fumbled around with the blanket and phone cord, fell asleep repeatedly during the day, but remained up all night. The patient cried and laughed in alternation, suddenly became afraid again and again and then laughed. All these symptoms were very unstable, highly varied, but the patient was not actually responsive on the admission date. On the Trzepacz scale of delirium (Psychiatry Research, 23, (1988), […]) a score of 29 (of a possible 32) corresponding to a severe delirium was reached. […]

CCN(C)C(=O)Oc1cccc([C@H](C)N(C)C)c1 [rivastigmine]
clinical state after therapy: the patient was oriented, no longer hallucinated
delirium score on the Trzepacz scale of delirium (score before therapy 29 (of a possible 32)): 8
